In ChEMBL document CHEMBL5370589, “Heterologous Production and Biosynthesis of Threonine-16:0dioic acids with a Hydroxamate Moiety” (J Nat Prod, 2023):
Activity calls are given as the source filed them. The calls are words filed in the database; no cut-off is given here.

Columns and labels:
[1] = system: Kocuria rhizophila; experiment: Antibiotic activity against Kocuria rhizophila DSM-348 assessed as reduction in bacterial cell growth at 0.03 to 64 microg/ml; format: functional, organism-based; conditions: dose 0.03-64 µg/ml
[2] = system: Erwinia persicina; experiment: Antibiotic activity against Erwinia persicina DSM-19328 assessed as reduction in bacterial cell growth at 0.03 to 64 microg/ml; format: functional, organism-based; conditions: dose 0.03-64 µg/ml
[3] = system: Bacillus subtilis; experiment: Antibiotic activity against Bacillus subtilis DSM-10 assessed as reduction in bacterial cell growth at 0.03 to 64 microg/ml; format: functional, organism-based; conditions: dose 0.03-64 µg/ml
[4] = system: Escherichia coli; experiment: Antibiotic activity against wild-type Escherichia coli BW25113 assessed as reduction in bacterial cell growth at 0.03 to 64 microg/ml; format: functional, organism-based; conditions: dose 0.03-64 µg/ml
[5] = Metal chelating activity assessed as compound-[…] complex formation at 10 to 100 uM by chrome-azurol S assay; conditions: dose 10-100 µM
[6] = system: Micrococcus luteus; experiment: Antibiotic activity against Micrococcus luteus DSM-20030 assessed as reduction in bacterial cell growth at 0.03 to 64 microg/ml; format: functional, organism-based; conditions: dose 0.03-64 µg/ml
[7] = system: Enterococcus mundtii; experiment: Antibiotic activity against Enterococcus mundtii DSM-4840 assessed as reduction in bacterial cell growth at 0.03 to 64 microg/ml; format: functional, organism-based; conditions: dose 0.03-64 µg/ml
[8] = system: Staphylococcus aureus; experiment: Antibiotic activity against Staphylococcus aureus Newman assessed as reduction in bacterial cell growth at 0.03 to 64 microg/ml; format: functional, organism-based; conditions: dose 0.03-64 µg/ml
[9] = system: HepG2; experiment: Cytotoxicity against human HepG2 cells assessed as reduction in cell viability; format: toxicity, cell-based
[10] = system: Staphylococcus carnosus; experiment: Antibiotic activity against Staphylococcus carnosus DSM-20501 assessed as reduction in bacterial cell growth at 0.03 to 64 microg/ml; format: functional, organism-based; conditions: dose 0.03-64 µg/ml
[11] = system: Pseudomonas putida; experiment: Antibiotic activity against Pseudomonas putida assessed as reduction in bacterial cell growth at 0.03 to 64 microg/ml; format: functional, organism-based; conditions: dose 0.03-64 µg/ml
[12] = Metal chelating activity assessed as compound-[…] complex formation by chrome-azurol S assay
[13] = Potency index, ratio of deferoxamine EC50 to compound EC50 for metal chelating activity assessed as compound-[…] complex formation by chrome-azurol S assay

Activity [5] | EC50 [12] [µM] | Ratio EC50 [13] | SMILES | Activity [1] | Activity [2] | Activity [3] | Activity [4] | Activity [6] | Activity [7] | Activity [8] | Activity [9] | Activity [10] | Activity [11]
inactive |  |  | CC(=O)N[C@@H](CSC(CCCCCCCCCCCCCC(=O)O)C(=O)N[C@@H](C(=O)O)[C@@H](C)O)C(=O)O (stereo partly specified) | inactive | inactive | inactive | inactive | inactive | inactive | inactive | Non-Toxic | inactive | inactive
 | 75 |  | CC(CCCCCCCCCCCCC(=O)N(O)[C@@H](C(=O)O)[C@@H](C)O)C(=O)O (stereo partly specified) |  |  |  |  |  |  |  |  |  | 
 | 18 |  | O=C(O)CN(CCN(CC(=O)O)CC(=O)O)CC(=O)O [EDETIC ACID] |  |  |  |  |  |  |  |  |  | 
 | 11 |  | CC(=O)N(O)CCCCCNC(=O)CCC(=O)N(O)CCCCCNC(=O)CCC(=O)N(O)CCCCCN [DEFEROXAMINE] |  |  |  |  |  |  |  |  |  | 
 | 58 | 5 | C[C@@H](O)[C@H](C(=O)O)N(O)C(=O)CCCCCCCCCCCCCCC(=O)O | inactive | inactive | inactive | inactive | inactive | inactive | inactive | Non-Toxic | inactive | inactive
